Assays:
[1] = biological target: Coagulation factor X (Homo sapiens, UniProt P00742); experiment: Compound (isomer) was tested in the absence of light for inhibitory activity against Human Coagulation factor X
[2] = biological target: T1, Serine protease 1 (Bos taurus, UniProt P00760); experiment: Compound (isomer) was tested in the absence of light for inhibitory activity against trypsin.
T1 sequence (P00760 whole entry): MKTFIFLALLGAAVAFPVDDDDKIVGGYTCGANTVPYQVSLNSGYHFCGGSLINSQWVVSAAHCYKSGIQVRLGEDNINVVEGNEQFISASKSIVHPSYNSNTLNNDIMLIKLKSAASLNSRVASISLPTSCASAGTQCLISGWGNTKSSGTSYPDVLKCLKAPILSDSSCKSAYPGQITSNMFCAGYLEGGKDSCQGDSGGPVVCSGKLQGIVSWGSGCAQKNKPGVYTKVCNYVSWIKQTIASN

[3] = biological target: Prothrombin (Homo sapiens, UniProt P00734); experiment: Compound (isomer) was tested in the absence of light for inhibitory activity against thrombin.

Chain of Coagulation factor X (P00742 41-179 limits assumed): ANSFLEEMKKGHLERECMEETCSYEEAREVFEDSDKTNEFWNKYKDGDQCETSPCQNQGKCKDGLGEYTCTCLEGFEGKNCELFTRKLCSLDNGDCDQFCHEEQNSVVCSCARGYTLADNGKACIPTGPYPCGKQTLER
Chain of Coagulation factor X (P00742 235-488 limits assumed): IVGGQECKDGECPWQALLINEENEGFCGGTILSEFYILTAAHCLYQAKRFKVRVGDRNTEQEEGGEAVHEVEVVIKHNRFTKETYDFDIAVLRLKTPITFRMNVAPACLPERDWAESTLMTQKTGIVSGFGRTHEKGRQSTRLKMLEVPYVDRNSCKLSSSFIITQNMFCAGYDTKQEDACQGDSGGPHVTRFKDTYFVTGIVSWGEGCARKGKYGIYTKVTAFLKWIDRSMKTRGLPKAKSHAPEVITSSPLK

Ki [1]	Ki [2]	Ki [3]	SMILES
17 µM	0.28 µM	–	N=C(N)c1ccc(/C=C2\CCCC/C(=C\c3ccc(C(=N)N)cc3)C2=O)cc1
–	0.029 µM	0.13 µM	N=C(N)c1ccc(/C=C2/CCCC/C(=C\c3ccc(C(=N)N)cc3)C2=O)cc1
